Reference: patent publication US10238713B2, “Cyclic tetrapeptides and therapeutic applications thereof” (LODZ UNIVERSITY OF TECHNOLOGY, priority 2010, dated 2019)
Non-standard residues stand in square brackets, D forms with d. Residues, ends and D or L forms follow the SMILES beside them. Oic = O=C(O)[C@@H]1C[C@@H]2CCCC[C@@H]2N1; Phe(4-Cl) = N[C@@H](Cc1ccc(Cl)cc1)C(=O)O; 2Nal = N[C@@H](Cc1ccc2ccccc2c1)C(=O)O; β3hY = N[C@H](CC(=O)O)Cc1ccc(O)cc1; Hyp = O=C(O)[C@@H]1C[C@@H](O)CN1; 3Pal = N[C@@H](Cc1cccnc1)C(=O)O; Tic = O=C(O)[C@@H]1Cc2ccccc2CN1; β3hF = N[C@H](CC(=O)O)Cc1ccccc1; ΔPro = O=C(O)[C@@H]1C=CCN1

Key:
[1] = tested on: mice, carrageenan air pouch; assay: Carrageenan air-pouch test (exudate cell number); format: in vivo, mouse; details: peptides 100 μg i.p. one hour before carrageenan, 24 h; FIGS. 18A-18B
Description: (§1) In this and the air-pouch test, 1.5 mg peptide was dissolved in 300 μl of DMSO, then in 0.9% NaCl to achieve the desired dose (250 μg/0.2 ml or 100 μg/0.2 ml). Carrageenan (Sigma) was dissolved in 0.9% aqueous NaCl (overnight). 50 μl of 2% carrageenan solution was injected intradermally into hind foot pads. The peptides were given in a single 250 μg dose (0.2 ml) per mouse intraperitoneally (i.p.), 30 min before carrageenan administration. Dexamethasone (DEX) (Dexaven, Polfa, Poland), a reference drug, was given i.p. in dose 25 μg per mouse. Control mice were administered i.p. appropriately diluted solvent (DMSO in aqueous NaCl) instead of peptides. The foot pads of “background” (BG) mice were injected with 50 μl of 0.9% aqueous NaCl. Foot pad edema was measured with a spring caliper, 2 h, 3 h and 4 h after administration of carrageenan. The results are presented in FIGS. 17A, 17B and 17C as mean values of the antigen-specific increase of the foot pad thickness measured in 5 mice in each experimental group and expressed in mm ±SE (only results from measurements 4 h following administration of carrageenan are presented in figures). Statistics: FIG. 17A: Control vs: DEX P=0.0001; 4B8M P=0.0001; P25 NS (P=1.0000); P28 NS (P=1.0000); P31 NS (P=0.0528); P35 P=0.0008 (ANOVA of Kruskal-Wallis); FIG. 17B: Statistics: Control vs: P22 NS (P=1.0000); P26 NS (P=1.0000); P27 P=0.0050; P30 P=0.0004; P33-b NS (P=1.0000); SP00-b P=0.0001; P00S-b NS (P=1.0000) (ANOVA of Kruskal-Wallis); FIG. 17C: Statistics: Control vs: P21 P=0.0147; P23-2 P=0.0083; P24 P=0.0001; P29 NS (P=0.9999); P32 P=0.0001; P33 NS (P=0.6806); P34 NS (P=0.1920) (ANOVA).
Air pouches were formed by subdermal injection into the dorsal region (in a halothane anesthesia) of 5 cm^3 of air (needle 23G x 11/4, 5 ml syringe). On day 3 the air pouches were given an additional 2 ml of air and an inflammatory process was elicited by an intra-pouch injection of 1% of carrageenan in 0.5 ml of 0.9% aqueous NaCl. The peptides were given i.p. at a dose of 100 μg one hour before carrageenan injection into the air pouch. The mice from the “background” (BG) group were given 0.9% aqueous NaCl i.p. and 0.9% aqueous NaCl into the air pouches. Control mice were given appropriately diluted DMSO i.p. and carrageenan into the air pouches. 24 h after carrageenan injection, the mice were sacrificed by cervical dislocation, the air pouches were supplemented with 1 ml of 0.9% aqueous NaCl and the exudates from the air pouches were aspirated using a syringe. The exudates were diluted with 0.9% aqueous NaCl and the cells were counted in a Bürker hemocytometer. Data are presented in FIGS. 18A and 18B as the mean values from 10 mice/group (cell number×10^6 per mouse) ±SE. Then the cells were centrifuged and 0.1 ml of the supernatant was saved for TNF-α determination (see Determination of TNF-α activity, above). The cell pellets were used to perform smears on microscopic glasses, which were stained with Giemsa and May-Grünwald reagents for evaluation of mast cell degranulation. Cell analysis was performed by a histologist using a light microscope and 1000× magnification. The content of intact and degranulated mast cells is given in percentage (mean values from 10 mice/group) ±SE. Statistics: FIG. 18A: BG vs Control P=0.0000; Control vs: DEX P=0.0034; 4B8M P=0.0005; P22 NS (P=0.7275); P26 P=0.0032; P27 NS (P=0.0659); P35 NS (P=1.0000) (ANOVA of Kruskal-Wallis); FIG. 18B: Control vs: P21 NS (P=0.322); P23-2 P=0.0020; P24 P=0.0001; P25 P=0.0418; P28 NS (P=0.3502); P29 NS (P=0.0582); P30 P=0.0006; P31 P=0.0078; P32 P=0.0340; P33 NS (P=0.9993); P34 NS (p=0.0566) (ANOVA).

[2] = tested on: mice, carrageenan-induced foot pad edema; assay: Carrageenan-induced foot-pad edema test; format: in vivo, mouse; details: 4 h after carrageenan; peptides 250 μg i.p., DEX 25 μg i.p., 30 min before; FIGS. 17A-17C
Description: as §1

human PBMC = assay: Toxicity test: PBMC survival in 24 h culture (MTT); details: ANOVA, FIGS. 8A-8F (4B8M repeated per figure)
Description: PBMC were isolated by centrifugation on Ficoll-uropoline gradient (density 1.077 g/ml) (Lymphoprep; PAA Laboratories), at 800×g for 20 min at 4° C. The interphase cells, consisting of lymphocytes (20%) and monocytes (80%) were then washed three times with Hanks' medium and re-suspended in the culture medium at density of 2×10^6 cells/ml.
Appropriate dilutions of DMSO in RPMI 1640 medium were used as controls. Cell survival was determined by the MTT colorimetric method (Hansen et al., J. Immunol. Methods, 1989, pp. 203-210). The data are presented as a mean OD value from quadriplicate wells ±standard error (SE). The cultures “Control (−)” contained only cells in the culture medium.
The assay was performed per Hansen et al., J. Immunol. […] Briefly, 25 μl of MTT (5 mg/ml) stock solution was added per well at the end of cell incubation and the plates were incubated for 3 h in a cell culture incubator. Then, 100 μl of the extraction buffer (20% SDS with 50% DMF, pH 4.7) was added. After additional overnight incubation, the optical density was measured at 550 nm (Dynatech 5000).

[3] = tested on: PHA-induced proliferation of human peripheral blood mononuclear cells (PBMC); assay: Proliferative response of PBMC to PHA (MTT); format: cell-based; details: four-day incubation, FIGS. 9A-9F

O=C1C[C@H](Cc2ccccc2)NC(=O)[C@@H]2Cc3ccccc3CN2C(=O)[C@@H]2CCCN2C(=O)[C@H](Cc2ccccc2)N1 [I-AB] (cyclo(FP[Tic][β3hF]))
air pouch exudate cell number, P vs Control [1]: 0.0582 | foot pad edema (increase of foot pad thickness), P vs Control [2]: 0.9999 | PBMC survival, P vs DMSO at appropriate dilution (human PBMC; 10 μg/ml): 0.8876 | PBMC survival, P vs DMSO at appropriate dilution (human PBMC; 100 μg/ml): 0.0001 | PHA-induced PBMC proliferation, P vs DMSO at appropriate dilution ([3]; 10 μg/ml): 1.0000 | PHA-induced PBMC proliferation, P vs DMSO at appropriate dilution ([3]; 100 μg/ml): 0.0001

O=C1C[C@H](Cc2ccccc2)NC(=O)[C@@H]2CCCN2C(=O)[C@@H]2CCCN2C(=O)[C@H](Cc2cccnc2)N1 [I-AC] (cyclo([3Pal]PP[β3hF]))
air pouch exudate cell number, P vs Control [1]: 0.0006 | foot pad edema (increase of foot pad thickness), P vs Control [2]: 0.0004 | PBMC survival, P vs DMSO at appropriate dilution (human PBMC; 10 μg/ml): 0.8178 | PBMC survival, P vs DMSO at appropriate dilution (human PBMC; 100 μg/ml): 0.9882 | PHA-induced PBMC proliferation, P vs DMSO at appropriate dilution ([3]; 10 μg/ml): 0.9850 | PHA-induced PBMC proliferation, P vs DMSO at appropriate dilution ([3]; 100 μg/ml): 0.9871

O=C1C[C@H](Cc2ccccc2)NC(=O)[C@@H]2CCCN2C(=O)[C@@H]2C[C@@H]3CCCC[C@@H]3N2C(=O)[C@H](Cc2ccccc2)N1 [I-AD] (cyclo(F[Oic]P[β3hF]))
air pouch exudate cell number, P vs Control [1]: 0.0078 | foot pad edema (increase of foot pad thickness), P vs Control [2]: 0.0528 | PBMC survival, P vs DMSO at appropriate dilution (human PBMC; 10 μg/ml): 1.0000 | PBMC survival, P vs DMSO at appropriate dilution (human PBMC; 100 μg/ml): 0.9531 | PHA-induced PBMC proliferation, P vs DMSO at appropriate dilution ([3]; 100 μg/ml): 1.0000

O=C1C[C@H](Cc2ccc(O)cc2)NC(=O)[C@@H]2CCCN2C(=O)[C@@H]2CCCN2C(=O)[C@H](Cc2ccccc2)N1 [I-AG] (cyclo(FPP[β3hY]))
air pouch exudate cell number, P vs Control [1]: 0.9993 | foot pad edema (increase of foot pad thickness), P vs Control [2]: 0.6806 | PBMC survival, P vs DMSO at appropriate dilution (human PBMC; 10 μg/ml): 0.0001 | PBMC survival, P vs DMSO at appropriate dilution (human PBMC; 100 μg/ml): 0.0001 | PHA-induced PBMC proliferation, P vs DMSO at appropriate dilution ([3]; 10 μg/ml): 1.0000 | PHA-induced PBMC proliferation, P vs DMSO at appropriate dilution ([3]; 100 μg/ml): 1.0000

O=C1C[C@H](Cc2ccccc2)NC(=O)[C@@H]2CCCN2C(=O)[C@@H]2C[C@@H](O)CN2C(=O)[C@H](Cc2ccccc2)N1 [I-R] (cyclo(F[Hyp]P[β3hF]))
air pouch exudate cell number, P vs Control [1]: 0.322 | foot pad edema (increase of foot pad thickness), P vs Control [2]: 0.0147 | PBMC survival, P vs DMSO at appropriate dilution (human PBMC; 10 μg/ml): 0.6250 | PBMC survival, P vs DMSO at appropriate dilution (human PBMC; 100 μg/ml): 0.0019 | PHA-induced PBMC proliferation, P vs DMSO at appropriate dilution ([3]; 10 μg/ml): 0.7122 | PHA-induced PBMC proliferation, P vs DMSO at appropriate dilution ([3]; 100 μg/ml): 0.0436

O=C1C[C@H](Cc2ccccc2)NC(=O)[C@@H]2CCCN2C(=O)[C@@H]2C=CCN2C(=O)[C@H](Cc2ccccc2)N1 [I-S] (cyclo(F[ΔPro]P[β3hF]))
air pouch exudate cell number, P vs Control [1]: 0.7275 | foot pad edema (increase of foot pad thickness), P vs Control [2]: 1.0000 | PBMC survival, P vs DMSO at appropriate dilution (human PBMC; 10 μg/ml): 0.9753 | PBMC survival, P vs DMSO at appropriate dilution (human PBMC; 100 μg/ml): 1.0000 | PHA-induced PBMC proliferation, P vs DMSO at appropriate dilution ([3]; 10 μg/ml): 0.0275 | PHA-induced PBMC proliferation, P vs DMSO at appropriate dilution ([3]; 100 μg/ml): 0.0001

O=C1C[C@H](Cc2ccccc2)NC(=O)[C@@H]2CCCN2C(=O)[C@@H]2CCCN2C(=O)[C@H](Cc2ccc3ccccc3c2)N1 [I-U] (cyclo([2Nal]PP[β3hF]))
air pouch exudate cell number, P vs Control [1]: 0.0020 | foot pad edema (increase of foot pad thickness), P vs Control [2]: 0.0083 | PBMC survival, P vs DMSO at appropriate dilution (human PBMC; 10 μg/ml): 0.9972 | PBMC survival, P vs DMSO at appropriate dilution (human PBMC; 100 μg/ml): 0.4949 | PHA-induced PBMC proliferation, P vs DMSO at appropriate dilution ([3]; 10 μg/ml): 1.0000 | PHA-induced PBMC proliferation, P vs DMSO at appropriate dilution ([3]; 100 μg/ml): 0.0002

O=C1C[C@H](Cc2ccccc2)NC(=O)[C@@H]2CCCN2C(=O)[C@@H]2CCCN2C(=O)[C@H](Cc2ccc(Cl)cc2)N1 [I-V] (cyclo(PP[β3hF][Phe(4-Cl)]))
air pouch exudate cell number, P vs Control [1]: 0.0001 | foot pad edema (increase of foot pad thickness), P vs Control [2]: 0.0001 | PBMC survival, P vs DMSO at appropriate dilution (human PBMC; 10 μg/ml): 0.9999 | PBMC survival, P vs DMSO at appropriate dilution (human PBMC; 100 μg/ml): 0.1122 | PHA-induced PBMC proliferation, P vs DMSO at appropriate dilution ([3]; 10 μg/ml): 1.0000 | PHA-induced PBMC proliferation, P vs DMSO at appropriate dilution ([3]; 100 μg/ml): 0.4681
